Read-outs that look alike come from different tables or passages of the source.
Assays:
[1] = cited from earlier work
cGMP PDE = conditions: sonicated human platelets; read-out: IC50 for inhibition of cGMP PDE activity; cited from earlier work
[2] = patients with ET or other myeloproliferative diseases; cited from earlier work
cAMP PDE = conditions: sonicated human platelets; read-out: IC50 for inhibition of cAMP PDE activity; cited from earlier work
cultured megakaryocytes [3] = conditions: cultured megakaryocytes; cited from earlier work
cultured megakaryocytes [4] = assay: In vitro studies of cultured megakaryocytes (TPO inhibition effects, megakaryocytopoiesis); format: cell-based; conditions: at 310.55 g/mol
[5] = Repeat-dose dose-escalation study of controlled release anagrelide: pharmacokinetics; format: in vivo, human; conditions: for half-life / AUC0-inf / AUC / Cmax / Tmax / AUC0-t: human, plasma, oral; for AUC0-inf / AUC / Cmax / AUC0-t: dose-normalized to 0.2 mg; for AUC0-inf: read-out: AUC0-inf; for AUC: read-out: AUC0-τ; for Cmax: read-out: Cmax; for Tmax: median; for AUC0-t: read-out: AUC0-t
Procedure: A placebo-controlled, double-blind repeat-dose, dose-escalation, sequential cohort study was conducted to evaluate the pharmacokinetics and pharmacodynamics of a controlled release composition of anagrelide as described herein in healthy subjects. An objective of the study was to explore the dose-response relationship for effects on platelet counts of a low dose range of a composition of anagrelide as described herein in healthy subjects. Other objectives of the study included determining the time course of effect and recovery of a range of doses of the composition including anagrelide on platelet count, determining the effects of a range of doses of the anagrelide compositions on platelet aggregation (collagen and ADP as agonists), determining the single and repeat dose pharmacokinetics of the anagrelide composition, and exploring the safety and tolerability of the compositions given as single doses and repeatedly for up to 21 days.
Eligible subjects were treated as follows: • Subjects were admitted to the unit on day 1 in the morning after an overnight fast and remain in the unit until 4 hours after morning dosing on day 5. • Subjects received a single dose of controlled release composition including anagrelide (or matching placebo) on day 1 in the morning. • Subjects commenced repeat dosing twice a day with the controlled release anagrelide composition on the morning of day 3 and remained in the unit until 4 hours after morning dose on day 5. • Subjects continued repeat twice a day dosing with the controlled release anagrelide composition as outpatients. Dosing continued until the morning of day 23. • All morning doses were taken after an overnight fast of at least 8 hour. • All evening doses were taken at least 2 hour after food consumption. No food was to be consumed for at least 1 hour after any dose (4 hours for the morning doses on day 1 and day 23). • On day 6-day 21, blood was taken pre-dosing of the controlled release anagrelide composition for full blood count (FBC) and platelet count (every day), trough PK (day 7, day 10, day 13, day 16 and day 19) and clinical chemistry (day 13). • Subjects were readmitted to the unit on the morning of day 22 and remained there until day 25 so that the PK of the final dose of the controlled release composition containing anagrelide on day 23 could be followed for 48 hours. • Subjects returned to the clinic daily from day 26 to day 31 for FBC and platelet counts. • Subjects returned for a follow up visit 14-16 days after the last dose of the controlled release composition containing anagrelide. Study Population:
A controlled release composition of anagrelide as described above in Table 4 of Example 1 (composition 2 fast release with seal coat) was used in unit doses of 100 μg and 300 μg, administered orally.
In this protocol, 4 cohorts of 200 μg, 300 μg, 400 μg and 600 μg doses of the controlled release composition including anagrelide administered twice daily were studied.
Platelet count, collagen-induced platelet aggregation, ADP induced platelet aggregation, template bleeding time, AUC0-t, AUC0-∞, Cmax, Cmin, t1/2, λZ and tmax were determined.
The starting dose of 200 μg (as a single dose on day 1 and then twice a day for 21 days) was chosen as a dose unlikely to cause any clinically significant reduction in platelet counts in healthy subjects. This starting dose was chosen because identification of the lowest dose of the controlled release composition containing anagrelide producing any effect on platelet counts was of interest. In each subsequent cohort the dose was increased by […] twice a day with the objective of identifying the dose range that lowers platelet counts by 30-50%. With daily monitoring of platelet counts, this escalation was determined to allow identification of the effective dose range of the controlled release composition of anagrelide without placing the subjects at significant clinical risk.

CYP1A2 = CYP1A2 (Homo sapiens, UniProt P05177); conditions: cited from earlier work
circulating platelets = conditions: patients with essential thrombocythemia, immediate release form 3 mg/day, after approximately 10 days; cited from earlier work
[6] = 38 volunteers, single 1 mg dose of immediate release anagrelide (Agrylin); cited from earlier work
[7] = cited from earlier work; remark: listed apart in the source
[8] = 0.2 mg, cohort 1 (0.2 mg), day 1
[9] = 0.2 mg, cohort 1 (0.2 mg), day 23
[10] = 0.3 mg, cohort 4 (0.3 mg), day 1
[11] = 0.3 mg, cohort 4 (0.3 mg), day 23
[12] = 0.4 mg, cohort 2 (0.4 mg), day 1
[13] = 0.4 mg, cohort 2 (0.4 mg), day 23
[14] = 0.6 mg, cohort 3 (0.6 mg), day 1
[15] = 14C labelled anagrelide in humans

CYP1A2, sequence (P05177 whole entry): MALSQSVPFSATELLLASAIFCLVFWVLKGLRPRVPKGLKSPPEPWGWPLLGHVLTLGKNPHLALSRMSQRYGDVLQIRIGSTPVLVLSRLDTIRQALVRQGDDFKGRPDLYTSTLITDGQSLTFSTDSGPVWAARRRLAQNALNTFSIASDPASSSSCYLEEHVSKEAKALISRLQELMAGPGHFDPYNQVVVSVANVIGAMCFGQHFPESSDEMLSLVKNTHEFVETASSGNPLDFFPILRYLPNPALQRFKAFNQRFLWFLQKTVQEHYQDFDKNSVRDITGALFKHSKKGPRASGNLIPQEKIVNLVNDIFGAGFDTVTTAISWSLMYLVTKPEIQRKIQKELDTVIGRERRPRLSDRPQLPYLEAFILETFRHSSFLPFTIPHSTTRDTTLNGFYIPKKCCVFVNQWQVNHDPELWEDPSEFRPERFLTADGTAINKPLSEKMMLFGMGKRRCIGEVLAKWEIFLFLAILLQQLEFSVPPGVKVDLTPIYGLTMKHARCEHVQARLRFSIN

In the case of `O=C1CN2Cc3c(ccc(Cl)c3Cl)N=C2N1` [anagrelide, 6,7-dichloro-1,5-dihydroimidazo-[2,1-b]quinazolin-2(3H)-one], the “Solubility in diethyl ether or n-heptane” value [1] is listed as “insoluble”, the “Solubility in dimethylsulfoxide and N,N-dimethylformamide” value [1] is listed as “sparingly soluble” and the Solubility in water [1] is listed as “very slightly soluble”. For the same compound, the IC50 (cGMP PDE) was 34 µM, the Observed half-life [2] was “about 1.7 h” and the “Share of all drug-related products in the plasma” value [2] was “less than 20%”. For the same compound, the IC50 (cAMP PDE) was 0.054 µM, the “Concentrations at which TPO inhibition effects are seen” value (cultured megakaryocytes [3]) was 0.01 to 5 µg/mL and the “Concentrations at which TPO inhibition effects are seen (molar equivalent)” value (cultured megakaryocytes [4]) was 0.032 to 0.16 µM. It also gave a Kel ([5]; cohort 1 (0.2 mg), day 1) of 0.1908 h⁻¹, a Kel ([5]; cohort 1 (0.2 mg), day 23) of 0.0871 h⁻¹ and a Kel ([5]; cohort 2 (0.4 mg), day 1) of 0.0426 h⁻¹. The Kel ([5]; cohort 2 (0.4 mg), day 23) was 0.0567 h⁻¹, the Kel ([5]; cohort 3 (0.6 mg), day 1) was 0.0490 h⁻¹ and the Kel ([5]; cohort 4 (0.3 mg), day 1) was 0.1685 h⁻¹. For the same compound, the Kel ([5]; cohort 4 (0.3 mg), day 23) was 0.0321 h⁻¹, the half-life [5, 8] was 22.9 h and the half-life [5, 9] was 34.3 h. It also gave an AUC0-inf [5, 8] of 2.45 ng·h/mL, an AUC [5, 8] of 1.75 ng·h/mL and a Cmax [5, 8] of 0.334 ng/mL. For the same compound, the AUC0-inf [5, 9] was 3.25 ng·h/mL, the AUC [5, 9] was 2 ng·h/mL and the Cmax [5, 9] was 0.354 ng/mL. For the same compound, the Tmax [5, 8] was 4 h, the Tmax [5, 9] was 3 h and the half-life [5, 10] was 14.3 h. It also gave a half-life [5, 11] of 21.6 h, an AUC0-inf [5, 10] of 2.24 ng·h/mL and an AUC [5, 10] of 1.63 ng·h/mL. For the same compound, the Cmax [5, 10] was 0.284 ng/mL, the AUC0-inf [5, 11] was 2.1 ng·h/mL and the AUC [5, 11] was 1.87 ng·h/mL. It also gave a Cmax [5, 11] of 0.224 ng/mL, a Tmax [5, 10] of 3.61 h and a Tmax [5, 11] of 2 h. The half-life [5, 12] was 56.1 h, the half-life [5, 13] was 15.1 h and the AUC0-inf [5, 12] was 3.48 ng·h/mL. The AUC [5, 12] was 1.48 ng·h/mL, the Cmax [5, 12] was 0.234 ng/mL and the AUC0-inf [5, 13] was 3.28 ng·h/mL. It also gave an AUC [5, 13] of 2.26 ng·h/mL, a Cmax [5, 13] of 0.331 ng/mL and a Tmax [5, 12] of 3.51 h. It also gave a Tmax [5, 13] of 3.02 h, a half-life [5, 14] of 19.5 h and an AUC0-inf [5, 14] of 2.74 ng·h/mL. For the same compound, the AUC [5, 14] was 1.96 ng·h/mL, the Cmax [5, 14] was 0.304 ng/mL and the Tmax [5, 14] was 4 h. The AUC0-t ([5]; cohort 1 (0.2 mg), day 1) was 1.72 ng·h/mL, the AUC0-t ([5]; cohort 2 (0.4 mg), day 1) was 1.66 ng·h/mL and the AUC0-t ([5]; cohort 3 (0.6 mg), day 1) was 2.26 ng·h/mL. The AUC0-t ([5]; cohort 4 (0.3 mg), day 1) was 1.82 ng·h/mL, the “Level of CYP1A2 inhibition relative to therapeutic exposure” value (CYP1A2) was “about 900 fold” and the “Decrease in the number of circulating platelets” value (circulating platelets) was 30-50%. For the same compound, the “AUC0-inf ± RSD (%)” value [6] was 11.1 ± 37.6 ng·h/mL, the “Cmax ± RSD (%)” value [6] was 4.99 ± 74.4 ng/mL and the “Tmax ± RSD (%)” value [6] was 1.3 ± 53.8 h. The “Eliminated via the kidneys” value [7, 15] was over 70%, the “Excreted in the feces” value [7, 15] was “approximately 10%” and the Terminal half-life ([7]; commercially available instant release formulation) was 1.7 h. For the same compound, the “Drug-drug interactions with hydroxycarbamide or aspirin” value ([7]; in vivo) was “No drug-drug interactions were identified” and the “Absorption in the gastrointestinal tract” value ([7]; oral, marketed immediate release formulation) was “about 70%”.

From patent publication US9750698B2, “Controlled release compositions of agents that reduce circulating levels of platelets and methods therefor” (BioVascular, Inc., priority 2008, dated 2017)
